Holding throughout (type): functional
For assay [1], the system named is Aspergillus niger. In words: Antifungal activity against Aspergillus niger MTCC 282 after 24 hr by serial dilution method.
Assay [2] has as its system Staphylococcus aureus. In words: Antibacterial activity against Staphylococcus aureus ATCC 25923 after 24 hr by serial dilution method. Particulars: ATCC 25923, 24 h.
Assay [3] relates to Streptococcus pyogenes. Briefly: Antibacterial activity against Streptococcus pyogenes MTCC 443 after 24 hr by serial dilution method. Particulars: MTCC 443, 24 h.
Assay [4] has as its system Pseudomonas aeruginosa. Briefly: Antibacterial activity against Pseudomonas aeruginosa MTCC 441 after 24 hr by serial dilution method. The settings on record: MTCC 441, 24 h.
Assay [5] deals with Escherichia coli. In words: Antibacterial activity against Escherichia coli ATCC 25922 after 24 hr by serial dilution method. Particulars: ATCC 25922, 24 h.
The test system of assay [6] is Mycobacterium tuberculosis. In words: Antitubercular activity against Mycobacterium tuberculosis H37Rv by agar microdilution method.

Data on 25 compounds can be found in ChEMBL document CHEMBL3045157, “Synthesis and evaluation of in vitro antitubercular activity and antimicrobial activity of some novel 4H-chromeno[2,3-d]pyrimidine via 2-amino-4-phenyl-4H-chromene-3-carbonitriles” (2011).

One may read the MIC as the smallest concentration in the dilution series that meets the test's criterion for growth inhibition.

In brackets after ≈: the same amount, converted by molar mass.

Regarding `Oc1ccc2c(c1)Oc1[nH]c(=S)[nH]c(=S)c1C2c1ccccc1` (stereo not given), the MIC was determined as 1000 µg/mL (≈ 2940 µM) in assay [1] (MTCC 282, 24 h); 62.5 µg/mL (≈ 184 µM) in assay [2]; 62.5 µg/mL (≈ 184 µM) in assay [3]; 250 µg/mL (≈ 734 µM) in assay [4]; 125 µg/mL (≈ 367 µM) in assay [5]; 200 µg/mL (≈ 587 µM) in assay [6].
On to `O=C(O)c1cn(C2CC2)c2cc(N3CCNCC3)c(F)cc2c1=O` [CIPROFLOXACIN], for which the MIC in assay [2] came out at 50 µg/mL (≈ 151 µM); in assay [3], 50 µg/mL (≈ 151 µM); in assay [5], 25 µg/mL (≈ 75.4 µM).
Regarding `S=c1[nH]c2c(c(=S)[nH]1)C(c1ccccc1)c1ccc3cccnc3c1O2` (stereo not given), the minimal inhibitory concentration (MIC) was determined as 500 µg/mL (≈ 1330 µM) in assay [1] (MTCC 282, 24 h); 62.5 µg/mL (≈ 166 µM) in assay [2]; 62.5 µg/mL (≈ 166 µM) in assay [3]; 125 µg/mL (≈ 333 µM) in assay [4]; 125 µg/mL (≈ 333 µM) in assay [5]; 200 µg/mL (≈ 533 µM) in assay [6].
Consider `Nc1nc(=O)[nH]c2c1C(c1ccccc1)c1ccccc1O2` (stereo not given), for which the minimum inhibitory concentration (MIC) in assay [1] (MTCC 282, 24 h) was 500 µg/mL (≈ 1720 µM); in assay [2], 125 µg/mL (≈ 429 µM); in assay [3], 125 µg/mL (≈ 429 µM); in assay [4], 62.5 µg/mL (≈ 215 µM); in assay [5], 62.5 µg/mL (≈ 215 µM); in assay [6], 500 µg/mL (≈ 1720 µM).
Regarding `Nc1nc(=O)[nH]c2c1C(c1ccccc1)c1ccc(O)cc1O2` (stereo not given), the minimal inhibitory concentration (MIC) turned out to be 250 µg/mL (≈ 814 µM) in assay [1] (MTCC 282, 24 h); 125 µg/mL (≈ 407 µM) in assay [2]; 250 µg/mL (≈ 814 µM) in assay [3]; 125 µg/mL (≈ 407 µM) in assay [4]; 250 µg/mL (≈ 814 µM) in assay [5]; 125 µg/mL (≈ 407 µM) in assay [6].
`Nc1nc(=S)[nH]c2c1C(c1ccccc1)c1ccc(O)cc1O2` (stereo not given): the MIC was determined as 125 µg/mL (≈ 387 µM) in assay [1] (MTCC 282, 24 h); 500 µg/mL (≈ 1550 µM) in assay [2]; 250 µg/mL (≈ 773 µM) in assay [3]; 125 µg/mL (≈ 387 µM) in assay [4]; 250 µg/mL (≈ 773 µM) in assay [5]; 500 µg/mL (≈ 1550 µM) in assay [6].
As for `Nc1nc(=O)[nH]c2c1C(c1ccccc1)c1ccc3ccccc3c1O2` (stereo not given), the minimum inhibitory concentration (MIC) came to 500 µg/mL (≈ 1460 µM) in assay [1] (MTCC 282, 24 h); 125 µg/mL (≈ 366 µM) in assay [2]; 125 µg/mL (≈ 366 µM) in assay [3]; 250 µg/mL (≈ 732 µM) in assay [4]; 500 µg/mL (≈ 1460 µM) in assay [5]; 1000 µg/mL (≈ 2930 µM) in assay [6].
On to `Nc1nc(=O)[nH]c2c1C(c1ccccc1)c1ccc3cccnc3c1O2` (stereo not given), for which the MIC in assay [1] (MTCC 282, 24 h) was found to be 250 µg/mL (≈ 730 µM); in assay [2], 125 µg/mL (≈ 365 µM); in assay [3], 125 µg/mL (≈ 365 µM); in assay [4], 500 µg/mL (≈ 1460 µM); in assay [5], 500 µg/mL (≈ 1460 µM); in assay [6], 125 µg/mL (≈ 365 µM).
For the compound NYSTATIN, inhibition of growth in assay [1] (MIC) required 100 µg/mL.
Take `Nc1nc(=S)[nH]c2c1C(c1ccccc1)c1ccccc1O2` (stereo not given): the minimum inhibitory concentration (MIC) in assay [1] (MTCC 282, 24 h) turned out to be 125 µg/mL (≈ 407 µM); in assay [2] it was 250 µg/mL (≈ 813 µM); in assay [3] it was 250 µg/mL (≈ 813 µM); in assay [4], 125 µg/mL (≈ 407 µM); in assay [5], 125 µg/mL (≈ 407 µM); in assay [6], 500 µg/mL (≈ 1630 µM).
Consider `O=c1[nH]cnc2c1C(c1ccccc1)c1ccc3ccccc3c1O2` (stereo not given), for which the MIC in assay [1] (MTCC 282, 24 h) is 1000 µg/mL (≈ 3060 µM); in assay [2] it was 62.5 µg/mL (≈ 192 µM); in assay [3], 62.5 µg/mL (≈ 192 µM); in assay [4], 250 µg/mL (≈ 766 µM); in assay [5], 125 µg/mL (≈ 383 µM); in assay [6], 125 µg/mL (≈ 383 µM).
With `O=c1[nH]cnc2c1C(c1ccccc1)c1ccc3cccnc3c1O2` (stereo not given), the MIC stood at 500 µg/mL (≈ 1530 µM) in assay [1] (MTCC 282, 24 h); 125 µg/mL (≈ 382 µM) in assay [2]; 250 µg/mL (≈ 764 µM) in assay [3]; 125 µg/mL (≈ 382 µM) in assay [4]; 250 µg/mL (≈ 764 µM) in assay [5]; 500 µg/mL (≈ 1530 µM) in assay [6].
`COC1=CC(=O)C[C@@H](C)[C@]12Oc1c(Cl)c(OC)cc(OC)c1C2=O` [GRISEOFULVIN] yielded an MIC in assay [1] (MTCC 282, 24 h) of 100 µg/mL (≈ 283 µM).
For `CC1(C)S[C@@H]2[C@H](NC(=O)[C@H](N)c3ccccc3)C(=O)N2[C@H]1C(=O)O` [AMPICILLIN], the minimum inhibitory concentration (MIC) in assay [2] is 100 µg/mL (≈ 286 µM); in assay [3], 250 µg/mL (≈ 715 µM); in assay [4], 100 µg/mL (≈ 286 µM); in assay [5] it was 100 µg/mL (≈ 286 µM).
Regarding `S=c1[nH]c2c(c(=S)[nH]1)C(c1ccccc1)c1ccccc1O2` (stereo not given), the MIC turned out to be 1000 µg/mL (≈ 3080 µM) in assay [1] (MTCC 282, 24 h); 500 µg/mL (≈ 1540 µM) in assay [2]; 500 µg/mL (≈ 1540 µM) in assay [3]; 250 µg/mL (≈ 771 µM) in assay [4]; 250 µg/mL (≈ 771 µM) in assay [5]; 500 µg/mL (≈ 1540 µM) in assay [6].
For `O=c1[nH]cnc2c1C(c1ccccc1)c1ccccc1O2` (stereo not given), the MIC is 500 µg/mL (≈ 1810 µM) in assay [1] (MTCC 282, 24 h); 250 µg/mL (≈ 905 µM) in assay [2]; 500 µg/mL (≈ 1810 µM) in assay [3]; 250 µg/mL (≈ 905 µM) in assay [4]; 250 µg/mL (≈ 905 µM) in assay [5]; 500 µg/mL (≈ 1810 µM) in assay [6].
On to `O=c1[nH]cnc2c1C(c1ccccc1)c1c(ccc3ccccc13)O2` (stereo not given), for which the MIC in assay [1] (MTCC 282, 24 h) was determined as 500 µg/mL (≈ 1530 µM); in assay [2], 125 µg/mL (≈ 383 µM); in assay [3] it was 125 µg/mL (≈ 383 µM); in assay [4], 125 µg/mL (≈ 383 µM); in assay [5], 125 µg/mL (≈ 383 µM); in assay [6] it was 125 µg/mL (≈ 383 µM).
With `S=c1[nH]c2c(c(=S)[nH]1)C(c1ccccc1)c1ccc3ccccc3c1O2` (stereo not given), the MIC in assay [1] (MTCC 282, 24 h) was found to be 500 µg/mL (≈ 1340 µM); in assay [2], 125 µg/mL (≈ 334 µM); in assay [3] it was 250 µg/mL (≈ 668 µM); in assay [4], 250 µg/mL (≈ 668 µM); in assay [5] it was 250 µg/mL (≈ 668 µM); in assay [6], 500 µg/mL (≈ 1340 µM).
Regarding `Nc1nc(=O)[nH]c2c1C(c1ccccc1)c1c(ccc3ccccc13)O2` (stereo not given), the minimum inhibitory concentration (MIC) is 250 µg/mL (≈ 732 µM) in assay [1] (MTCC 282, 24 h); 62.5 µg/mL (≈ 183 µM) in assay [2]; 62.5 µg/mL (≈ 183 µM) in assay [3]; 500 µg/mL (≈ 1460 µM) in assay [4]; 250 µg/mL (≈ 732 µM) in assay [5]; 250 µg/mL (≈ 732 µM) in assay [6].
Turning to `S=c1[nH]c2c(c(=S)[nH]1)C(c1ccccc1)c1c(ccc3ccccc13)O2` (stereo not given), the MIC in assay [1] (MTCC 282, 24 h) amounted to 500 µg/mL (≈ 1340 µM); in assay [2], 125 µg/mL (≈ 334 µM); in assay [3] it was 250 µg/mL (≈ 668 µM); in assay [4] it was 125 µg/mL (≈ 334 µM); in assay [5], 250 µg/mL (≈ 668 µM); in assay [6] it was 100 µg/mL (≈ 267 µM).
As for `Nc1nc(=S)[nH]c2c1C(c1ccccc1)c1c(ccc3ccccc13)O2` (stereo not given), the MIC in assay [1] (MTCC 282, 24 h) is 1000 µg/mL (≈ 2800 µM); in assay [2], 250 µg/mL (≈ 699 µM); in assay [3] it was 500 µg/mL (≈ 1400 µM); in assay [4], 500 µg/mL (≈ 1400 µM); in assay [5] it was 500 µg/mL (≈ 1400 µM); in assay [6], 1000 µg/mL (≈ 2800 µM).
`Nc1nc(=S)[nH]c2c1C(c1ccccc1)c1ccc3ccccc3c1O2` (stereo not given): the minimal inhibitory concentration (MIC) in assay [1] (MTCC 282, 24 h) is 1000 µg/mL (≈ 2800 µM); in assay [2], 500 µg/mL (≈ 1400 µM); in assay [3], 500 µg/mL (≈ 1400 µM); in assay [4] it was 125 µg/mL (≈ 350 µM); in assay [5], 500 µg/mL (≈ 1400 µM); in assay [6], 1000 µg/mL (≈ 2800 µM).
`CO[C@H]1/C=C/O[C@@]2(C)Oc3c(C)c(O)c4c(O)c(c(/C=N/N5CCN(C)CC5)c(O)c4c3C2=O)NC(=O)/C(C)=C\C=C\[C@H](C)[C@H](O)[C@@H](C)[C@@H](O)[C@@H](C)[C@H](OC(C)=O)[C@@H]1C` [RIFAMPIN]: the minimal inhibitory concentration (MIC) in assay [6] was 40 µg/mL (≈ 48.6 µM).
Consider `Nc1nc(=S)[nH]c2c1C(c1ccccc1)c1ccc3cccnc3c1O2` (stereo not given), for which the MIC in assay [1] (MTCC 282, 24 h) was found to be 500 µg/mL (≈ 1390 µM); in assay [2], 125 µg/mL (≈ 349 µM); in assay [3], 250 µg/mL (≈ 697 µM); in assay [4], 62.5 µg/mL (≈ 174 µM); in assay [5], 62.5 µg/mL (≈ 174 µM); in assay [6], 500 µg/mL (≈ 1390 µM).
In the case of `O=c1[nH]cnc2c1C(c1ccccc1)c1ccc(O)cc1O2` (stereo not given), the minimal inhibitory concentration (MIC) in assay [1] (MTCC 282, 24 h) was 1000 µg/mL (≈ 3420 µM); in assay [2] it was 500 µg/mL (≈ 1710 µM); in assay [3] it was 500 µg/mL (≈ 1710 µM); in assay [4] it was 250 µg/mL (≈ 855 µM); in assay [5], 62.5 µg/mL (≈ 214 µM); in assay [6], 62.5 µg/mL (≈ 214 µM).
